Source: patent US12370192B2, “Azole-fused pyridazin-3(2H)-one derivatives” (TAKEDA PHARMACEUTICAL COMPANY LIMITED, priority 2019, dated 2025)

Key:
human GPR139 receptor [1] = target: T1, human GPR139 receptor (Homo sapiens, UniProt Q6DWJ6); test: GPR139 Competition Binding (membrane-based, tritium-labeled ligand); conditions: T-REx-CHO membranes with human GPR139; 6.5 nM tritium-labeled ligand; 11-point curve, 30 μM maximum concentration; read-out: GPR139 Binding Affinity (pKi) (converted)
T1 construct: expressed in transfected cells; host or cells: T-REx-CHO (Thermo Fisher Scientific), doxycycline-induced
T1 sequence (Q6DWJ6 1-353): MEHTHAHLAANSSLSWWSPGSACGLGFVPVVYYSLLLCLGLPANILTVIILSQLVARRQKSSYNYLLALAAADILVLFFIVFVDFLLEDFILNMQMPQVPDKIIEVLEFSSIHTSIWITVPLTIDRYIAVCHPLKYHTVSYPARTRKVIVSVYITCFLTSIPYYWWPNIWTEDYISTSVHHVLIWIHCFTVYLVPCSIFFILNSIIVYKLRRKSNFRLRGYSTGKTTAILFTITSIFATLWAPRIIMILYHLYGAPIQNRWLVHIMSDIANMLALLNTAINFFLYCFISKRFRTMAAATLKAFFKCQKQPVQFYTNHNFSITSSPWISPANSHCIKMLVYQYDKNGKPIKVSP
Experimental: OPR139 Competition Binding
This membrane-based assay measures the ability of compounds to competitively bind GPR139 in stably transfected TREx™-CHO membranes. To prepare the membranes, T-REx™-CHO (Thermo Fisher Scientific®) cells are stably expressed with human GPR139 receptor, whose expression is controlled by a tetracycline-inducible element. The cells are cultured in medium containing F-12K nutrient mixture-Kaighn's modification, 10% tetracycline-free FBS, Blasticidin S HCl (10 μg/mL) and Hygromycin B (200 μg/mL). GPR139 receptor expression is induced for 18 hours with 2 μg/mL doxycycline (Sigma D9891) in growth media. After addition of doxycycline, cells are harvested in PBS and pelleted by centrifugation for 5 minutes at 200×G. Liquid is aspirated off and cells are resuspended in ice cold lysis buffer (20 mM HEPES/5 mM EDTA pH 7.4/1× Roche® protease inhibitor). Samples are vortexed until homogenous and then placed on ice and homogenized using a Dounce homogenizer at 50% power (3 cycles, 10 strokes per cycle). Lysate is centrifuged at 4° C. for 10 minutes in a tabletop Sorvall® centrifuge at 2000×G. The supernatant is recovered and centrifuged in a Sorvall® ultracentrifuge at 35,000 rpm for 30 minutes at 4° C. The supernatant is discarded, and the remaining pellet resuspended in lysis buffer (20 mM HEPES/0.1 mM EGTA/Roche® protease inhibitor). Membrane protein concentration is determined using Thermo Fisher® BCA quantification kit and is aliquoted into microtubes. Tubes are snap frozen in liquid nitrogen and stored at −80° C. Prior to use, the membranes are removed from cold storage, thawed to room temperature, vortexed until homogenous and diluted in assay buffer (20 mM HEPES pH 7.3, 5 mM MgCl2, 1 mM CaCl2), 1× Thermo Scientific® Halt™ protease inhibitor (78429)).
The assay is run in 96-well, polypropylene, v-bottom plates (Greiner Bio-One® 651201). Test compound in DMSO is added to the wells of each plate (11-point dose response curve, 30 μM maximum concentration, 3-fold serial dilution). A fixed amount of tritium-labeled ligand, (S)-2-(2,3-dimethyl-7-oxothieno[2,3-d]pyridazin-6(7H)-yl)-N-(1-(4-methoxyphenyl-2-t)propan-2-yl)acetamide (Quotient Bioresearch) in assay buffer (6.5 nM assay concentration) is added to each well of the assay plate, which is then agitated on a plate shaker for 30 seconds. Next, a fixed amount of membranes in assay buffer (2 μg membranes) is added to each well of the assay plate, which is then spun for 30 seconds at 300 rpm in a tabletop Eppendorf centrifuge, and then incubated at room temperature for 20 minutes. Using a Tomtec harvester, the contents of the assay plate are transferred to Filtermat A (PerkinElmer® No. 1450-421) which prior to use is pre-soaked in 0.5% PEI (Sigma P3143) for 3 hours and dried at room temperature overnight. Following transfer, the Filtermat is washed 5 times with cold wash buffer (20 mM HEPES pH 7.3, 100 mM NaCl). The Filtermat is dried using a microwave oven and placed in a sample bag (PerkinElmer® No. 1450-432) with a scintillator sheet (PerkinElmer® No. 1450-411). The scintillator sheet is melted to the Filtermat using a heat block set to 65° C., placed in a MicroBeta® cartridge and read using a MicroBeta® scintillation counter. Binding curves are generated with a four-parameter logistic equation using GraphPad Prism® 6 and the inhibition constant Ki is reported as pKi.

human GPR139 receptor [2] = target: T1, human GPR139 receptor; test: Measurement of GPR139 Activation Via Calcium Signaling (FLIPR, T-REx-CHO cells); format: cell-based; conditions: T-REx-CHO cells stably expressing human GPR139, 11-point dose response, 10 μM maximum concentration, read-out: GPR139 Potency (pEC50) (converted)
Procedure, shortened: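 T-REx-CHO cells stably carrying human GPR139 under tetracycline control, induced with 2 μg/mL doxycycline for 17 h at 37 °C, loaded 40 min with Calcium 5 dye plus probenecid in HBSS/HEPES pH 7.4. Agonist added as 11-point series (10 μM top); fluorescence read 1 min; pEC50 from four-parameter fit.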

Ki (human GPR139 receptor [1])	EC50 (human GPR139 receptor [2])	SMILES
2.14 nM	25.1 nM	Cc1ccc([C@H](C)NC(=O)Cn2ncc3c(c(C)cn3C3CC3)c2=O)cc1F [Example 62, (S)-2-(1-cyclopropyl-3-methyl-4-oxo-1,4-dihydro-5H-pyrrolo[2,3-d]pyridazin-5-yl)-N-(1-(3-fluoro-4-methylphenyl)ethyl)acetamide]
28.2 nM	115 nM	Cc1ccc([C@H](C)NC(=O)Cn2nc(C)c3c(C)nn(C(C)C)c3c2=O)cc1 [Example 21, (S)-2-(1-isopropyl-3,4-dimethyl-7-oxo-1,7-dihydro-6H-pyrazolo[3,4-d]pyridazin-6-yl)-N-(1-(p-tolyl)ethyl)acetamide]
195 nM	13.2 nM	Cc1ccc([C@H](C)NC(=O)Cn2ncc3ccn(C)c3c2=O)cc1 [Example 162, (S)-2-(1-methyl-7-oxo-1,7-dihydro-6H-pyrrolo[2,3-d]pyridazin-6-yl)-N-(1-(p-tolyl)ethyl)acetamide]
89.1 nM	708 nM	Cc1ccc([C@H](C)NC(=O)Cn2nc(C3CC3)c3cnn(-c4ccccc4)c3c2=O)cc1 [Example 43, (S)-2-(4-cyclopropyl-7-oxo-1-phenyl-1,7-dihydro-6H-pyrazolo[3,4-d]pyridazin-6-yl)-N-(1-(p-tolyl)ethyl)acetamide]
75.9 nM	34.7 nM	Cc1ccc([C@H](C)NC(=O)Cn2ncc3c(c(C)nn3C3CC3)c2=O)c(F)c1 [Example 108, (S)-2-(1-cyclopropyl-3-methyl-4-oxo-1,4-dihydro-5H-pyrazolo[3,4-d]pyridazin-5-yl)-N-(1-(2-fluoro-4-methylphenyl)ethyl)acetamide]
550 nM	41.7 nM	Cc1ccc([C@H](C)NC(=O)Cn2nc(C)c3c(cnn3C)c2=O)c(F)c1 [Example 82]
72.4 nM	≥ 10000 nM	Cc1ccc([C@H](C)NC(=O)Cn2nc(C(C)C)c3cnn(-c4ccccc4)c3c2=O)cc1 [Example 3, (S)-2-(4-isopropyl-7-oxo-1-phenyl-1,7-dihydro-6H-pyrazolo[3,4-d]pyridazin-6-yl)-N-(1-(p-tolyl)ethyl)acetamide]
617 nM	23.4 nM	Cc1nn(C2CC2)c2cnn(CC(=O)N[C@@H](C)c3cccc(F)c3)c(=O)c12 [Example 25, (S)-2-(1-cyclopropyl-3-methyl-4-oxo-1,4-dihydro-5H-pyrazolo[3,4-d]pyridazin-5-yl)-N-(1-(3-fluorophenyl)ethyl)acetamide]
309 nM	107 nM	Cc1nn(C(C)C)c2cnn(CC(=O)N[C@@H](C)c3ccc(C(F)(F)F)cc3)c(=O)c12 [Example 94, (S)-2-(1-isopropyl-3-methyl-4-oxo-1,4-dihydro-5H-pyrazolo[3,4-d]pyridazin-5-yl)-N-(1-(4-(trifluoromethyl)phenyl)ethyl)acetamide]
81.3 nM	91.2 nM	Cc1nn(C2CC2)c2cnn(CC(=O)N[C@@H](C)c3c(F)cccc3Cl)c(=O)c12 [Example 136, (S)—N-(1-(2-chloro-6-fluorophenyl)ethyl)-2-(1-cyclopropyl-3-methyl-4-oxo-1,4-dihydro-5H-pyrazolo[3,4-d]pyridazin-5-yl)acetamide]
30200 nM	363 nM	Cc1ccc([C@H](C)NC(=O)Cn2ncc3ncn(C)c3c2=O)cc1 [Example 138, (S)-2-(3-methyl-4-oxo-3,4-dihydro-5H-imidazo[4,5-d]pyridazin-5-yl)-N-(1-(p-tolyl)ethyl)acetamide]
229 nM	95.5 nM	C[C@H](NC(=O)Cn1ncc2c(C3CC3)nn(C)c2c1=O)c1ccc(C(F)(F)F)cc1 [Example 142, (S)-2-(3-cyclopropyl-1-methyl-7-oxo-1,7-dihydro-6H-pyrazolo[3,4-d]pyridazin-6-yl)-N-(1-(4-(trifluoromethyl)phenyl)ethyl)acetamide]
7.59 nM	33.1 nM	Cc1ccc([C@H](C)NC(=O)Cn2ncc3c(c(C)cn3C3CC3)c2=O)cc1 [Example 147, (S)-2-(1-cyclopropyl-3-methyl-4-oxo-1,4-dihydro-5H-pyrrolo[2,3-d]pyridazin-5-yl)-N-(1-(p-tolyl)ethyl)acetamide]
70.8 nM	12.6 nM	Cc1ccc([C@H](C)NC(=O)Cn2ncc3ccn(C)c3c2=O)c(F)c1 [Example 165, (S)—N-(1-(2-fluoro-4-methylphenyl)ethyl)-2-(1-methyl-7-oxo-1,7-dihydro-6H-pyrrolo[2,3-d]pyridazin-6-yl)acetamide]
234 nM	126 nM	Cc1nn(C(C)(C)C)c2cnn(CC(=O)N[C@@H](C)c3ccc(C(F)(F)F)cc3)c(=O)c12 [Example 157, (S)-2-(1-(tert-butyl)-3-methyl-4-oxo-1,4-dihydro-5H-pyrazolo[3,4-d]pyridazin-5-yl)-N-(1-(4-(trifluoromethyl)phenyl)ethyl)acetamide]
57.5 nM	617 nM	Cc1nn(CC(=O)N[C@@H](C)c2ccc(OC(F)(F)F)cc2)c(=O)c2c1cnn2C(C)(C)C [Example 15, (S)-2-(1-(tert-butyl)-4-methyl-7-oxo-1,7-dihydro-6H-pyrazolo[3,4-d]pyridazin-6-yl)-N-(1-(4-(trifluoromethoxy)phenyl)ethyl)acetamide]
7.94 nM	33.9 nM	Cc1ccc([C@H](C)NC(=O)Cn2nc(C)c3c(c(C4CC4)nn3C)c2=O)cc1 [Example 119, (S)-2-(3-cyclopropyl-1,7-dimethyl-4-oxo-1,4-dihydro-5H-pyrazolo[3,4-d]pyridazin-5-yl)-N-(1-(p-tolyl)ethyl)acetamide]
38900 nM	933 nM	Cc1ccc(C)c([C@H](C)NC(=O)Cn2ncc3c(c(C)nn3C3CC3)c2=O)c1 [Example 26, (S)-2-(1-cyclopropyl-3-methyl-4-oxo-1,4-dihydro-5H-pyrazolo[3,4-d]pyridazin-5-yl)-N-(1-(2,5-dimethylphenyl)ethyl)acetamide]
42.7 nM	41.7 nM	Cc1nn(C2CC2)c2cnn(CC(=O)N[C@@H](C)c3ccc(F)cc3Cl)c(=O)c12 [Example 131, (S)—N-(1-(2-chloro-4-fluorophenyl)ethyl)-2-(1-cyclopropyl-3-methyl-4-oxo-1,4-dihydro-5H-pyrazolo[3,4-d]pyridazin-5-yl)acetamide]
224 nM	≥ 10000 nM	C[C@H](NC(=O)Cn1nc(C2CC2)c2cnn(-c3ccccc3)c2c1=O)c1ccc(OC(F)(F)F)cc1 [Example 45, (S)-2-(4-cyclopropyl-7-oxo-1-phenyl-1,7-dihydro-6H-pyrazolo[3,4-d]pyridazin-6-yl)-N-(1-(4-(trifluoromethoxy)phenyl)ethyl)acetamide]
257 nM	67.6 nM	Cc1nn(C2CC2)c2cnn(CC(=O)N[C@@H](C)c3ccc(F)cc3F)c(=O)c12 [Example 128, (S)-2-(1-cyclopropyl-3-methyl-4-oxo-1,4-dihydro-5H-pyrazolo[3,4-d]pyridazin-5-yl)-N-(1-(2,4-difluorophenyl)ethyl)acetamide]
